Experimental data published in patent US20250051319A1 (AUGUSTINE THERAPEUTICS, priority 2021, published 2025).

Target: catalytic domain 2 (CD2) of HDAC6 (Homo sapiens (Human), UniProt Q9UBN7)
Assay: Cellular target engagement assay - NanoBRET
Format: cell-based
Details: NanoLuc-HDAC6(CD2) in HEK293T cells, 2 hours, read-out: IC50 (HDAC6(CD2) interaction)
Procedure: NanoBRET target engagement was performed against the catalytic domain 2 (CD2) of HDAC6, with minor modifications of kit manufacturer protocol (Promega). Expression of exogenous NanoLuc-HDAC6(CD2) fusion and in HEK293T was achieved following transient transfection with FuGENE HD Transfection Reagent (Promega). The intracellular target engagement assay on HDAC6(CD2) was performed in a 384-well plate format with 8,000 cells per well and a tracer concentration of 0.125 μM or 0.600 μM for HDAC6(CD2). Compounds (dissolved in 100% DMSO) or DMSO (vehicle) were added either manually by diluting them in culture medium at 8× final assay concentration and then adding 5 μL to assay plate or in an automated way by adding […] compound to 5 μL OptiMEM without phenol red (Gibco) using the Echo650 (Labcyte). Tracer solution was added to the cells before seeding 35 μL cell/tracer mixture in the assay plate. The final reaction volume was 40 μL, final DMSO concentration was 1.4% (manual compound addition) or 1.25% (automated compound addition). Assay plates were incubated at 37° C. in a humidified atmosphere containing 5% C02 for 2 hours. The NanoBRET Nano-glo Substrate/Inhibitor was prepared by diluting NanoBRET Nano-Glo Substrate (1:332) and Extracellular Inhibitor (1:1000) in assay medium (Promega). […] BRET ratios were calculated from acceptor/donor signal ratio (mBRET=acceptor/donor*1000) and normalized for each plate. Percentage inhibition was calculated by setting the mBRET obtained with cells without tracer to 100%, while the mBRET obtained with uninhibited cells with tracer was set to 0%. IC50-values were calculated from the percentage inhibition with the log(inhibitor) vs. response—Variable slope (four parameters) nonlinear regression in GraphPad Prism software.

catalytic domain 2 (CD2) of HDAC6, sequence (Q9UBN7 482-800): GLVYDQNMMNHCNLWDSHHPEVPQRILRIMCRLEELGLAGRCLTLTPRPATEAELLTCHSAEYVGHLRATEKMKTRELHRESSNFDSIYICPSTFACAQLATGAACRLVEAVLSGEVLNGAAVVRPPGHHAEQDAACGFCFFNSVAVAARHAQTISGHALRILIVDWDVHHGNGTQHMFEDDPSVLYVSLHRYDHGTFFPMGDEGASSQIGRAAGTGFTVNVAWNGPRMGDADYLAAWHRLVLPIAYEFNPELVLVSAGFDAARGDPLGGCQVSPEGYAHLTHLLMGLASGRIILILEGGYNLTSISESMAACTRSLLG

| SMILES | IC50 |
| --- | --- |
| COc1ccc2nc(C)nc(SCC(=O)c3ccc(CNC(=O)C4CCCN4)s3)c2c1 (centres unmarked) [Compound 184, N-((5-(2-((6-methoxy-2-methylquinazolin-4-yl)thio)acetyl)thiophen-2-yl)methyl)pyrrolidine-2-carboxamide] | 100 to 500 nM |
| COc1ccc2nc(C)nc(SCC(=O)c3ccc(CNC(=O)[C@@H](C)O)s3)c2c1 [Compound 186, (R)-2-hydroxy-N-((5-(2-((6-methoxy-2-methylquinazolin-4-yl)thio)acetyl)thiophen-2-yl)methyl)propanamide] | 100 to 500 nM |
| O=C(CO)NCc1ccc(C(=O)CSc2nc3c(C(F)(F)F)cccc3o2)s1 [Compound 196, 2-hydroxy-N-((5-(2-((4-(trifluoromethyl)benzo[d]oxazol-2-yl)thio)acetyl)thiophen-2-yl)methyl)acetamide] | 1000 to 10000 nM |
| CCc1nc(SCC(=O)c2ccc(CNC(=O)C(C)(C)C)s2)c2ccccc2n1 [Example 13, N-((5-(2-((2-ethylquinazolin-4-yl)thio)acetyl)thiophen-2-yl)methyl)pivalamide] | 100 to 500 nM |
| CC(C)(C)C(=O)NCc1ccc(C(=O)CSc2nc(C3CCC3)nc3ccccc23)s1 [Example 14, N-((5-(2-((2-cyclobutylquinazolin-4-yl)thio)acetyl)thiophen-2-yl)methyl)pivalamide] | 100 to 500 nM |
| COc1ccc2nc(C)nc(SCC(=O)c3ccc(CNC(=O)C(C)(C)C)s3)c2c1 [Example 17, N-((5-(2-((6-methoxy-2-methylquinazolin-4-yl)thio)acetyl)thiophen-2-yl)methyl)pivalamide] | 100 to 500 nM |
| Cc1nc(SCC(=O)c2ccc(CNC(=O)C(C)(C)C)s2)c2ncccc2n1 [Example 18, N-((5-(2-((2-methylpyrido[3,2-d]pyrimidin-4-yl)thio)acetyl)thiophen-2-yl)methyl)pivalamide] | 100 to 500 nM |
| Cn1ncc2c(SCC(=O)c3ncc(CNC(=O)C(C)(C)C)s3)ncnc21 [Example 27, N-((2-(2-((1-methyl-1H-pyrazolo[3,4-d]pyrimidin-4-yl)thio)acetyl)thiazol-5-yl)methyl)pivalamide] | 100 to 500 nM |
| COc1ccc2nc(C)nc(SCC(=O)c3ccc(CNC(=O)C4CC4(F)F)s3)c2c1 (centres unmarked) [Example 39, 2,2-difluoro-N-((5-(2-((6-methoxy-2-methylquinazolin-4-yl)thio)acetyl)thiophen-2-yl)methyl)cyclopropane-1-carboxamide] | 500 to 1000 nM |
| COc1ccc2nc(C)nc(SCC(=O)c3ccc(CNC(=O)C(F)(F)C(F)(F)F)s3)c2c1 [Example 40, 2,2,3,3,3-pentafluoro-N-((5-(2-((6-methoxy-2-methylquinazolin-4-yl)thio)acetyl)thiophen-2-yl)methyl)propanamide] | 1000 to 10000 nM |
| COc1ccc2nc(C)nc(SCC(=O)c3ccc(CNC(=O)C4CC4)s3)c2c1 [Example 51, N-((5-(2-((6-methoxy-2-methylquinazolin-4-yl)thio)acetyl)thiophen-2-yl)methyl)cyclopropanecarboxamide] | 100 to 500 nM |
| O=C(CO)NCc1ccc(C(=O)CSc2nc(C(F)(F)F)nc3ccc(N4CCOCC4)cc23)s1 [Example 63] | 100 to 500 nM |
| CC(=O)NCCc1ccc(C(=O)CSc2nc(C3CC3)nc3ccccc23)s1 [Example 101, N-(2-(5-(2-((2-cyclopropylquinazolin-4-yl)thio)acetyl)thiophen-2-yl)ethyl)acetamide] | 100 to 500 nM |
| CC(=O)NCc1ccc(C(=O)CSc2ncnc3c2cnn3C)s1 [Example 103, N-((5-(2-((1-methyl-1H-pyrazolo[3,4-d]pyrimidin-4-yl)thio)acetyl)thiophen-2-yl)methyl)acetamide] | 500 to 1000 nM |

The next lines start with the values.

| IC50 | SMILES |
| --- | --- |
| ≤ 100 nM | CCn1ncc2c(SCC(=O)c3ccc(CNC(=O)CO)s3)nc(C(F)(F)F)nc21 [Compound 136, N-((5-(2-((1-ethyl-6-(trifluoromethyl)-1H-pyrazolo[3,4-d]pyrimidin-4-yl)thio)acetyl)thiophen-2-yl)methyl)-2-hydroxyacetamide] |
| 100 to 500 nM | COc1ccc2nc(C(F)F)nc(SCC(=O)c3ccc(CNC(=O)CO)s3)c2c1 [Compound 139, N-((5-(2-((2-(difluoromethyl)-6-methoxyquinazolin-4-yl)thio)acetyl)thiophen-2-yl)methyl)-2-hydroxyacetamide] |
| 100 to 500 nM | COc1cccc2nc(C)nc(SCC(=O)c3ccc(CNC(=O)CO)s3)c12 [Compound 143, 2-hydroxy-N-((5-(2-((5-methoxy-2-methylquinazolin-4-yl)thio)acetyl)thiophen-2-yl)methyl)acetamide] |
| ≤ 100 nM | CCOc1ccc2nc(C)nc(SCC(=O)c3ccc(CNC(=O)CO)s3)c2c1 [Compound 144, N-((5-(2-((6-ethoxy-2-methylquinazolin-4-yl)thio)acetyl)thiophen-2-yl)methyl)-2-hydroxyacetamide] |
| ≤ 100 nM | CCOc1cc2c(SCC(=O)c3ccc(CNC(=O)CO)s3)nc(C)nc2cn1 [Compound 145, N-((5-(2-((6-ethoxy-2-methylpyrido[3,4-d]pyrimidin-4-yl)thio)acetyl)thiophen-2-yl)methyl)-2-hydroxyacetamide] |
| ≤ 100 nM | Cc1nc(SCC(=O)c2ccc(CNC(=O)CO)s2)c2c(F)c(Cl)ccc2n1 [Compound 146, N-((5-(2-((6-chloro-5-fluoro-2-methylquinazolin-4-yl)thio)acetyl)thiophen-2-yl)methyl)-2-hydroxyacetamide] |
| ≤ 100 nM | Cc1nc(SCC(=O)c2ccc(CNC(=O)CO)s2)c2cc(N(C)C)ncc2n1 [Compound 149, N-((5-(2-((6-(dimethylamino)-2-methylpyrido[3,4-d]pyrimidin-4-yl)thio)acetyl)thiophen-2-yl)methyl)-2-hydroxyacetamide] |
| ≤ 100 nM | Cc1nc(SCC(=O)c2ccc(CNC(=O)CO)s2)c2cc(C(F)(F)F)cc(N(C)C)c2n1 [Compound 150, N-((5-(2-((8-(dimethylamino)-2-methyl-6-(trifluoromethyl)quinazolin-4-yl)thio)acetyl)thiophen-2-yl)methyl)-2-hydroxyacetamide] |
| 100 to 500 nM | CNc1cc(C(F)(F)F)cc2c(SCC(=O)c3ccc(CNC(=O)CO)s3)nc(C)nc12 [Compound 151, 2-hydroxy-N-((5-(2-((2-methyl-8-(methylamino)-6-(trifluoromethyl)quinazolin-4-yl)thio)acetyl)thiophen-2-yl)methyl)acetamide] |
| 100 to 500 nM | COc1cnc2nc(C)nc(SCC(=O)c3ccc(CN(C)C(=O)CO)s3)c2c1 [Compound 162, 2-hydroxy-N-((5-(2-((6-methoxy-2-methylpyrido[2,3-d]pyrimidin-4-yl)thio)acetyl)thiophen-2-yl)methyl)-N-methylacetamide] |
| 100 to 500 nM | COc1ccc2nc(C)nc(SCC(=O)c3ccc(CNC(=O)C4CCCO4)s3)c2c1 (centres unmarked) [Compound 171, N-((5-(2-((6-methoxy-2-methylquinazolin-4-yl)thio)acetyl)thiophen-2-yl)methyl)tetrahydrofuran-2-carboxamide] |
| 100 to 500 nM | COc1ccc2nc(C)nc(SCC(=O)c3ccc(CNC(=O)C(F)F)s3)c2c1 [Compound 172, 2,2-difluoro-N-((5-(2-((6-methoxy-2-methylquinazolin-4-yl)thio)acetyl)thiophen-2-yl)methyl)acetamide] |
| 100 to 500 nM | COc1ccc2nc(C)nc(SCC(=O)c3ccc(CNC(=O)CN)s3)c2c1 [Compound 177, 2-amino-N-((5-(2-((6-methoxy-2-methylquinazolin-4-yl)thio)acetyl)thiophen-2-yl)methyl)acetamide] |
| ≤ 100 nM | COc1ccc2nc(C)nc(SCC(=O)c3ccc(CNC(=O)C4CN(C)C4)s3)c2c1 [Compound 178, N-((5-(2-((6-methoxy-2-methylquinazolin-4-yl)thio)acetyl)thiophen-2-yl)methyl)-1-methylazetidine-3-carboxamide] |
| 100 to 500 nM | CNCC(=O)NCc1ccc(C(=O)CSc2nc(C)nc3ccc(OC)cc23)s1 [Compound 183, N-((5-(2-((6-methoxy-2-methylquinazolin-4-yl)thio)acetyl)thiophen-2-yl)methyl)-2-(methylamino)acetamide] |
| ≤ 100 nM | COc1ccc2nc(C)nc(SCC(=O)c3ccc(CNC(=O)[C@H](C)O)s3)c2c1 [Compound 185, (S)-2-hydroxy-N-((5-(2-((6-methoxy-2-methylquinazolin-4-yl)thio)acetyl)thiophen-2-yl)methyl)propanamide] |
| ≤ 100 nM | Cn1cc2c(SCC(=O)c3ccc(CNC(=O)C(C)(C)C)s3)nc(C(F)(F)F)nc2n1 [Example 22, N-((5-(2-((2-methyl-6-(trifluoromethyl)-2H-pyrazolo[3,4-d]pyrimidin-4-yl)thio)acetyl)thiophen-2-yl)methyl)pivalamide] |
| ≤ 100 nM | Cn1cc2c(SCC(=O)c3ccc(CNC(=O)C4CC4)s3)nc(C(F)(F)F)nc2n1 [Example 41, N-((5-(2-((2-methyl-6-(trifluoromethyl)-2H-pyrazolo[3,4-d]pyrimidin-4-yl)thio)acetyl)thiophen-2-yl)methyl)cyclopropanecarboxamide] |
